# Source: patent US9913905B2 (EAGLE BIOLOGICS, INC., priority 2013, dated 2018)
# Values joined by “and” are separate entries in the source; they are usually repeats but may differ in a detail not shown here. Equal values may be shown once.
# Columns and labels:
# HERCEPTIN® = assay: Viscosity of concentrated aqueous solutions of HERCEPTIN® (mVROC microfluidic viscometer); type: physicochemical; conditions: organophosphate 0.25M
# TYSABRI® = assay: Viscosity of concentrated aqueous solutions of TYSABRI® (mVROC microfluidic viscometer); type: physicochemical; conditions: organophosphate 0.25M
# REMICADE® = assay: Viscosity of concentrated aqueous solutions of […]® (mVROC microfluidic viscometer); type: physicochemical
# biosimilar AVASTIN® = assay: Viscosity of concentrated aqueous solutions of biosimilar AVASTIN® (mVROC microfluidic viscometer); type: physicochemical
# Experimental: All viscosities of well-mixed aqueous mAb solutions were measured using either a mVROC microfluidic viscometer (RheoSense) or a DV2T cone and plate viscometer (Brookfield; “C & P”) after a 5 minute equilibration at 25° C. (unless otherwise indicated). The mVROC viscometer was equipped with an “A” or “B” chip, each manufactured with a 50 micron channel. Typically, 0.10 mL of protein solution was back-loaded into a gastight microlab instrument syringe (Hamilton; 100 μL), affixed to the chip, and measured at multiple flow rates, approximately 20%, 40%, and 60% of the maximum pressure for each chip. […] An average absolute viscosity and standard deviation was then calculated from at least these three measurements. The C & P viscometer was equipped with a CPE40 or CPE52 spindle (cone angle of 0.8° and 3.0°, respectively) and 0.50 mL samples were measured at multiple shear rates between 2 and 400 s^−1. […] An extrapolated zero-shear viscosity was then determined from a plot of dynamic viscosity versus shear rate for the samples measured on a DV2T cone and plate viscometer. The extrapolated zero-shear viscosities reported are the average and standard deviation of at least three measurements.
# First, Polysorbate 20 was removed using DETERGENT-OUT® TWEEN Medi Columns (G-Biosciences). […] Then, an appropriate amount of viscosity-reducing organophosphate solution (pH 7.0) was added to each aliquot such that upon reconstitution with water, the final excipient concentration was 0.10-0.25 M. The protein solutions were then freeze-dried. The dried protein cakes, containing protein and viscosity-reducing organophosphate (and a negligible amount of buffer salts) were reconstituted to a final volume of approximately 0.1 mL and viscosity-reducing organophosphate concentration as previously described. […] The dried protein cakes, containing protein and buffer salts were reconstituted to a final volume of approximately 0.10-0.50 mL. […] Viscosities reported were measured on a RheoSense mVROC microfluidic viscometer.
# Viscosities reported were measured on a RheoSense mVROC microfluidic viscometer.
# [1] = tested on: respiratory syncytial virus; conditions: two Phase III clinical trials in the pediatric population; cited from earlier work
# biosimilar ERBITUX® = assay: Viscosity of concentrated aqueous solutions of biosimilar ERBITUX® (mVROC microfluidic viscometer); type: physicochemical; conditions: Biosimilar ERBITUX® 215 mg/mL; excipient 0.25M
# biosimilar RITUXAN® = assay: Viscosity of concentrated aqueous solutions of biosimilar RITUXAN® (mVROC microfluidic viscometer); type: physicochemical; conditions: organophosphate 0.10M
# Experimental: (unless otherwise indicated).
# A commercially-obtained biosimilar AVASTIN® (100-400 mg) containing pharmaceutical excipients (Polysorbate 20, phosphate and citrate buffers, mannitol, and NaCl) was purified. […] Samples buffer exchanged into 2 mM PB were first aliquoted. […] For samples buffer exchanged into 20 mM PB (PB control samples), the collected protein solution was freeze-dried. […] Using the same protocol, formulations containing biosimilar ERBITUX®, TYSABRI®, HERCEPTIN®, and […]® were also prepared.
# [2] = tested on: therapeutically relevant mAbs; conditions: in some cases; Table 3
# Experimental: All viscosities of well-mixed aqueous mAb solutions were measured using either a mVROC microfluidic viscometer (RheoSense) or a DV2T cone and plate viscometer (Brookfield; “C & P”) after a 5 minute equilibration at 25° C. […] The mVROC viscometer was equipped with an “A” or “B” chip, each manufactured with a 50 micron channel. Typically, 0.10 mL of protein solution was back-loaded into a gastight microlab instrument syringe (Hamilton; 100 μL), affixed to the chip, and measured at multiple flow rates, approximately 20%, 40%, and 60% of the maximum pressure for each chip. […] An average absolute viscosity and standard deviation was then calculated from at least these three measurements. The C & P viscometer was equipped with a CPE40 or CPE52 spindle (cone angle of 0.8° and 3.0°, respectively) and 0.50 mL samples were measured at multiple shear rates between 2 and 400 s^−1. Specifically, samples were measured for 30 seconds each at 22.58, 24.38, 26.25, 28.13, 30, 31.88, 45, 67.5, 90, 112.5, 135, 157.5, 180, 202.5, 247, 270, 292.5, 315, 337.5, 360, 382, 400 s^−1, starting at a shear rate that gave at least 10% torque, and continuing until instrument torque reached 100%. An extrapolated zero-shear viscosity was then determined from a plot of dynamic viscosity versus shear rate for the samples measured on a DV2T cone and plate viscometer. […]
# [3] = [Excipient] 0.10 M, [mAb] 217 mg/mL, 25° C., pH 7
compound,measurement,setting,value
"Cc1ncc(C[n+]2csc(CCOP(=O)(O)OP(=O)([O-])O)c2C)c(N)n1.Cc1nccn1CCCN [TPP-APMI, thiamine pyrophosphate 1-(3-aminopropyl)-2-methyl-1H-imidazole]",Viscosity,HERCEPTIN®; HERCEPTIN® 221 mg/mL,60.5 ± 0.3 cP
same,Viscosity,TYSABRI®; TYSABRI® 238 mg/mL,76.3 ± 3.2 cP
same,Viscosity,"REMICADE®; REMICADE® 223 mg/mL, organophosphate 0.25M",316 ± 11 cP
same,Viscosity,"biosimilar AVASTIN®; Table 2, [Excipient] 0.10 M, [biosimilar AVASTIN®] 191 mg/mL",23.2 ± 0.9 cP
same,Viscosity,"biosimilar AVASTIN®; Table 2, [Excipient] 0.20 M, [biosimilar AVASTIN®] 180 mg/mL",20.9 ± 0.4 cP
same,Viscosity,"biosimilar AVASTIN®; Table 2, [Excipient] 0.50 M, [biosimilar AVASTIN®] 180 mg/mL",111 ± 1 cP
"Nc1nc2c(ncn2[C@H]2CC(O)[C@@H](COP(=O)(O)OP(=O)(O)OP(=O)(O)O)O2)c(=O)[nH]1 (some centres unmarked) [dGTP-Tris, deoxyguanosine triphosphate]",Viscosity,biosimilar AVASTIN®; [3],238 ± 31 cP
"Nc1ncnc2c1ncn2[C@H]1C[C@H](O)[C@@H](COP(=O)(O)OP(=O)(O)OP(=O)(O)O)O1 [dATP-Tris, deoxyadenosine triphosphate]",Viscosity,"biosimilar AVASTIN®; [Excipient] 0.10 M, [mAb] 196 mg/mL, 25° C., pH 7",127 ± 0.2 cP
palivizumab: humanized mAb directed against an epitope in the A antigenic site of the F protein of respiratory syncytial virus,Reduction of the risk of hospitalization due to respiratory syncytial virus infection,[1],55% and 45%
"Nc1ccn([C@H]2C[C@H](O)[C@@H](COP(=O)(O)OP(=O)(O)OP(=O)(O)O)O2)c(=O)n1 [dCTP-Tris, deoxycytidine triphosphate]",Viscosity,biosimilar AVASTIN®; [3],325 ± 13 cP
CN(CC(=O)O)C(=N)NP(=O)(O)O [Phosphocreatine],Viscosity,"biosimilar AVASTIN®; [Excipient] 0.25 M, [mAb] 231 mg/mL, 25° C., pH 7",>>200 cP
"Cc1ncc(C[n+]2csc(CCOP(=O)(O)OP(=O)(O)O)c2C)c(N)n1.[Cl-] [TPP, thiamine pyrophosphate]",Viscosity,HERCEPTIN®; HERCEPTIN® 240 mg/mL,156 ± 3 cP
same,Viscosity,biosimilar ERBITUX®,55.6 ± 4.8 cP
same,Viscosity,"REMICADE®; REMICADE® 158 mg/mL, organophosphate 0.10M",100 ± 9 cP
same,Viscosity,"REMICADE®; REMICADE® 232 mg/mL, organophosphate 0.25M",1773 ± 304 cP
same,Viscosity,biosimilar RITUXAN®; Biosimilar RITUXAN® 193 mg/mL,102 ± 16 cP
same,Viscosity reducing ability among the organophosphates examined,"biosimilar AVASTIN®; Table 1, biosimilar AVASTIN®",greatest viscosity reducing ability
same,Viscosity,"biosimilar AVASTIN®; Table 2, [Excipient] 0.10 M, [biosimilar AVASTIN®] 176 mg/mL",21.1 ± 1.7 cP
same,Viscosity,"biosimilar AVASTIN®; Table 2, [Excipient] 0.30 M, [biosimilar AVASTIN®] 191 mg/mL",129 ± 5 cP
same,Viscosity,"biosimilar AVASTIN®; Table 3, Biosimilar AVASTIN® 216 mg/mL, organophosphate 0.1M",47.6 ± 2.7 cP
same,Viscosity,"biosimilar AVASTIN®; [Excipient] 0.10 M, [mAb] 201 mg/mL, 25° C., pH 7",34.6 ± 2.1 cP
same,Viscosity,"biosimilar AVASTIN®; [Excipient] 0.10 M, [mAb] 216 mg/mL, 25° C., pH 7",47.6 ± 2.7 cP
same,Viscosity,"biosimilar AVASTIN®; [Excipient] 0.25 M, [mAb] 210 mg/mL, 25° C., pH 7",44.5 ± 0.9 cP
"Nc1ncnc2c1ncn2[C@@H]1O[C@H](COP(=O)(O)OP(=O)([O-])OP(=O)([O-])O)[C@@H](O)[C@H]1O.[Na+].[Na+] [ATP, adenosine triphosphate]",Viscosity,"biosimilar AVASTIN®; [Excipient] 0.10 M, [mAb] 209 mg/mL, 25° C., pH 7",52.3 ± 2.3 cP
same,Viscosity,biosimilar AVASTIN®; [3],80.7 ± 7.1 cP
"Cc1cn([C@H]2CC(O)[C@@H](COP(=O)(O)OP(=O)(O)OP(=O)(O)O)O2)c(=O)[nH]c1=O (some centres unmarked) [dTTP-Tris, deoxythymidine triphosphate]",Viscosity,"biosimilar AVASTIN®; [Excipient] 0.10 M, [mAb] 221 mg/mL, 25° C., pH 7",207 ± 6 cP
"Nc1ncnc2c1ncn2[C@@H]1O[C@H](COP(=O)(O)O)[C@@H](O)[C@H]1O [AMP, Adenosine Monophosphate]",Viscosity,"biosimilar AVASTIN®; [Excipient] 0.10 M, [mAb] 206 mg/mL, 25° C., pH 7",63.2 ± 1.6 cP
C=C(OP(=O)(O)O)C(=O)O [Phosphoenol pyruvate],Viscosity,"biosimilar AVASTIN®; [Excipient] 0.25 M, [mAb] 193 mg/mL, 25° C., pH 7",>>200 cP
Nc1nc2c(ncn2[C@@H]2O[C@H](COP(=O)(O)OP(=O)(O)OP(=O)(O)O)[C@@H](O)[C@H]2O)c(=O)[nH]1 [GTP],Viscosity,"biosimilar AVASTIN®; [Excipient] 0.10 M, [mAb] 205 mg/mL, 25° C., pH 7",150 ± 12 cP
"Nc1ncnc2c1ncn2[C@@H]1O[C@H](COP(=O)(O)OP(=O)(O)O)[C@@H](O)[C@H]1O [ADP, Adenosine Diphosphate]",Viscosity,"biosimilar AVASTIN®; [Excipient] 0.10 M, [mAb] 215 mg/mL, 25° C., pH 7",76.6 ± 2.2 cP
"Nc1ncnc2c1ncn2[C@@H]1O[C@@H]2COP(=O)(O)OC2C1O (some centres unmarked) [cAMP-Tris, cyclic adenosine monophosphate]",Viscosity,HERCEPTIN®; HERCEPTIN® 235 mg/mL,79.5 ± 2.7 cP
same,Viscosity,TYSABRI®; TYSABRI® 227 mg/mL,80.1 ± 2.4 cP
same,Reduction of viscosity,[2],up to 9 fold
same,Viscosity,biosimilar RITUXAN®; Biosimilar RITUXAN® 199 mg/mL,62.6 ± 1.7 cP
same,Viscosity,"biosimilar AVASTIN®; Table 2, [Excipient] 0.40 M, [biosimilar AVASTIN®] 176 mg/mL",39.2 ± 4.3 cP
same,Viscosity,"biosimilar AVASTIN®; Table 2, [Excipient] 0.50 M, [biosimilar AVASTIN®] 178 mg/mL",66.1 ± 0.4 cP
same,Viscosity,"biosimilar AVASTIN®; Table 3, Biosimilar AVASTIN® 216 mg/mL, organophosphate 0.25M",85.7 ± 10.7 cP
same,Viscosity,"biosimilar AVASTIN®; [Excipient] 0.25 M, [mAb] 209 mg/mL, 25° C., pH 7",62.1 ± 1.8 cP
same,Viscosity,"biosimilar AVASTIN®; [Excipient] 0.25 M, [mAb] 216 mg/mL, 25° C., pH 7",85.7 ± 10.7 cP
nicotinamide adenine dinucleotide phosphate [NADP],Viscosity,"biosimilar AVASTIN®; [Excipient] 0.10 M, [mAb] 204 mg/mL, 25° C., pH 7",165 ± 23 cP
same,Viscosity,"biosimilar AVASTIN®; [Excipient] 0.25 M, [mAb] 186 mg/mL, 25° C., pH 7",242 ± 16 cP
